# Source: patent US20240208909A1, “SUBSTITUTED QUINOLINE DERIVATIVES HAVING SOS1 INHIBITION ACTIVITIES AND USES THEREOF” (Accutar Biotechnology Inc., priority 2022, published 2024)
# Key:
# [1] = tested on: Phospho-ERK1/2 in DLD1 cells; test: Phospho-ERK1/2 expression inhibition in DLD1 cells; format: cell-based; settings: Homo sapiens, DLD-1, 4 hours, read-out: DLD1 pERK IC50
# How it was run: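 DLD1 cells (15,000/well) were plated overnight, then exposed to compounds for 4 h at 37 °C. Cells were formaldehyde-fixed and methanol-permeabilized. Phospho-ERK1/2 was detected in-cell with rabbit anti-phospho-ERK1/2 and an IRDye 800CW secondary antibody, imaged on a LI-COR Odyssey.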
# K562 cells = test: Cell growth inhibition of K562 cells (CellTiter-Glo); format: cell-based; settings: Homo sapiens, 120 h, 5 days
# SOS1/KRAS-G12D = SOS1/KRAS-G12D (Homo sapiens (Human), UniProt Q07889); test: SOS1/KRAS-G12D binding inhibition assay (AlphaScreen); settings: GST-SOS1 and 6*His KRAS-G12D, read-out: KrasG12D/SOS1 binding IC50
# Chain of SOS1/KRAS-G12D (Q07889 564-1049 limits assumed): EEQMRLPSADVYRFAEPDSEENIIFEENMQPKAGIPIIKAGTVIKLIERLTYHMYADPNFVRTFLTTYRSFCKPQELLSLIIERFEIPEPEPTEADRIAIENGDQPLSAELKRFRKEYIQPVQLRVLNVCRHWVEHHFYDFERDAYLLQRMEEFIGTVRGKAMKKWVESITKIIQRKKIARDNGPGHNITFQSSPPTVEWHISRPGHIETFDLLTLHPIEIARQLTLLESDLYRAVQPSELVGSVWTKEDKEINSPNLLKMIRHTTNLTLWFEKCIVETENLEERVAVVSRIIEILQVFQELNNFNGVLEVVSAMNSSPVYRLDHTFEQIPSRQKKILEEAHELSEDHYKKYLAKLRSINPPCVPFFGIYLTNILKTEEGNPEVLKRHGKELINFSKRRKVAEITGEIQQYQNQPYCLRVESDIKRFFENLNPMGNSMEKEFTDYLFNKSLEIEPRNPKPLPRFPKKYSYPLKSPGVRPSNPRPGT
# How it was run: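 GST-SOS1 (5 nM) pre-incubated 30 min with His6-KRAS-G12D (50 nM) in HEPES pH 7.4, NaCl, DTT, MgCl2, Tween-20, BSA; compound in 2% DMSO then added for 30 min at 4° C. GSH donor and Ni-NTA acceptor AlphaScreen beads, 2 h at 4° C; background-corrected % inhibition versus DMSO, IC50 by variable-slope nonlinear regression.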
SMILES,IC50 [1],GI50 (K562 cells),IC50 (SOS1/KRAS-G12D)
"Cc1c([C@@H](C)Nc2ccnc3ccc(N4C[C@H](C)NC[C@H]4C)cc23)cccc1C(F)(F)F [Compound 54, 6-((2R,5S)-2,5-dimethylpiperazin-1-yl)-N-((R)-1-(2-methyl-3-(trifluoromethyl)phenyl)ethyl)quinolin-4-amine]",> 500 nM,100 to 500 nM,10 to 100 nM
"COc1cc2nccc(N[C@H](C)c3cccc(C(F)(F)F)c3C)c2cc1N1CCNCC1 [Compound 55, (R)-7-methoxy-N-(1-(2-methyl-3-(trifluoromethyl)phenyl)ethyl)-6-(piperazin-1-yl)quinolin-4-amine]",> 500 nM,> 500 nM,10 to 100 nM
"Cc1c([C@@H](C)Nc2ccnc3ccc(N4C[C@@H](C)NC[C@@H]4C)cc23)cccc1C(F)(F)F [Compound 56, 6-((2S,5R)-2,5-dimethylpiperazin-1-yl)-N-((R)-1-(2-methyl-3-(trifluoromethyl)phenyl)ethyl)quinolin-4-amine]",> 500 nM,100 to 500 nM,10 to 100 nM
"CC(=O)N1C[C@@H](C)N(c2ccc3nccc(N[C@H](C)c4cccc(C(F)(F)F)c4C)c3c2)C[C@@H]1C [Compound 57, 1-((2S,5R)-2,5-dimethyl-4-(4-(((R)-1-(2-methyl-3-(trifluoromethyl)phenyl)ethyl)amino)quinolin-6-yl)piperazin-1-yl)ethan-1-one]",> 500 nM,100 to 500 nM,> 100 nM
"Cc1c([C@@H](C)Nc2ccnc3ccc(N4CC5CC(C4)N5)cc23)cccc1C(F)(F)F [Compound 58, 6-(3,6-diazabicyclo[3.1.1]heptan-3-yl)-N-((R)-1-(2-methyl-3-(trifluoromethyl)phenyl)ethyl)quinolin-4-amine]",> 500 nM,100 to 500 nM,10 to 100 nM
"Cc1c([C@@H](C)Nc2ccnc3ccc(N4CC5CCC(C4)N5)cc23)cccc1C(F)(F)F [Compound 59, 6-(3,8-diazabicyclo[3.2.1]octan-3-yl)-N-((R)-1-(2-methyl-3-(trifluoromethyl)phenyl)ethyl)quinolin-4-amine]",> 500 nM,100 to 500 nM,10 to 100 nM
"Cc1c([C@@H](C)Nc2ccnc3ccc(N4CCNC[C@@H]4C)cc23)cccc1C(F)(F)F [Compound 60, N-((R)-1-(2-methyl-3-(trifluoromethyl)phenyl)ethyl)-6-((S)-2-methylpiperazin-1-yl)quinolin-4-amine]",> 500 nM,100 to 500 nM,10 to 100 nM
"CC(=O)N1CCN(c2ccc3nccc(N[C@H](C)c4cccc(C(F)(F)F)c4C)c3c2)[C@@H](C)C1 [Compound 61, 1-((S)-3-methyl-4-(4-(((R)-1-(2-methyl-3-(trifluoromethyl)phenyl)ethyl)amino)quinolin-6-yl)piperazin-1-yl)ethan-1-one]",> 500 nM,> 500 nM,> 100 nM
"CC(=O)N1CCCN(c2ccc3nccc(N[C@H](C)c4cccc(C(F)(F)F)c4C)c3c2)CC1 [Compound 62, (R)-1-(4-(4-((1-(2-methyl-3-(trifluoromethyl)phenyl)ethyl)amino)quinolin-6-yl)-1,4-diazepan-1-yl)ethan-1-one]",> 500 nM,> 500 nM,> 100 nM
"Cc1c([C@@H](C)Nc2ccnc3ccc(N4CCCNCC4)cc23)cccc1C(F)(F)F [Compound 63, (R)-6-(1,4-diazepan-1-yl)-N-(1-(2-methyl-3-(trifluoromethyl)phenyl)ethyl)quinolin-4-amine]",> 500 nM,> 500 nM,10 to 100 nM
"CC(=O)N1C2CC1CN(c1ccc3nccc(N[C@H](C)c4cccc(C(F)(F)F)c4C)c3c1)C2 [Compound 64, 1-(3-(4-(((R)-1-(2-methyl-3-(trifluoromethyl)phenyl)ethyl)amino)quinolin-6-yl)-3,6-diazabicyclo[3.1.1]heptan-6-yl)ethan-1-one]",> 500 nM,> 500 nM,10 to 100 nM
"Cc1c([C@@H](C)Nc2ccnc3ccc(N4CCC(N5CCC5)CC4)cc23)cccc1C(F)(F)F [Compound 65, (R)-6-(4-(azetidin-1-yl)piperidin-1-yl)-N-(1-(2-methyl-3-(trifluoromethyl)phenyl)ethyl)quinolin-4-amine]",> 500 nM,> 500 nM,10 to 100 nM
"CC(=O)N1C[C@H](C)N(c2ccc3nccc(N[C@H](C)c4cccc(C(F)(F)F)c4C)c3c2)C[C@H]1C [Compound 66, 1-((2R,5S)-2,5-dimethyl-4-(4-(((R)-1-(2-methyl-3-(trifluoromethyl)phenyl)ethyl)amino)quinolin-6-yl)piperazin-1-yl)ethan-1-one]",> 500 nM,> 500 nM,> 100 nM
"Cc1c([C@@H](C)Nc2ccnc3ccc(N4CCNC5(CC5)C4)cc23)cccc1C(F)(F)F [Compound 69, (R)-N-(1-(2-methyl-3-(trifluoromethyl)phenyl)ethyl)-6-(4,7-diazaspiro[2.5]octan-7-yl)quinolin-4-amine]",> 500 nM,100 to 500 nM,10 to 100 nM
"CC(=O)N1CCN(c2ccc3nccc(N[C@H](C)c4cccc(C(F)(F)F)c4C)c3c2)CC12CC2 [Compound 70, (R)-1-(7-(4-((1-(2-methyl-3-(trifluoromethyl)phenyl)ethyl)amino)quinolin-6-yl)-4,7-diazaspiro[2.5]octan-4-yl)ethan-1-one]",> 500 nM,100 to 500 nM,10 to 100 nM
"COC1(c2ccc3nccc(N[C@H](C)c4cccc(C(F)F)c4F)c3c2)CCN(C(C)=O)CC1 [Compound 72, (R)-1-(4-(4-((1-(3-(difluoromethyl)-2-fluorophenyl)ethyl)amino)quinolin-6-yl)-4-methoxypiperidin-1-yl)ethan-1-one]",≤ 150 nM,≤ 100 nM,≤ 10 nM
"COc1cc2nccc(N[C@H](C)c3cccc(C(F)F)c3F)c2cc1C1(OC)CCN(C(C)=O)CC1 [Compound 73, (R)-1-(4-(4-((1-(3-(difluoromethyl)-2-fluorophenyl)ethyl)amino)-7-methoxyquinolin-6-yl)-4-methoxypiperidin-1-yl)ethan-1-one]",> 500 nM,> 500 nM,≤ 10 nM
"COC(=O)N1CCC(F)(c2cc3c(N[C@H](C)c4cccc(C(F)(F)F)c4C)ccnc3cc2OC)CC1 [Compound 74, Methyl (R)-4-fluoro-4-(7-methoxy-4-((1-(2-methyl-3-(trifluoromethyl)phenyl)ethyl)amino)quinolin-6-yl)piperidine-1-carboxylate]",150 to 500 nM,100 to 500 nM,10 to 100 nM
"CO[C@@]1(c2ccc3nccc(N[C@H](C)c4cccc(C(F)F)c4F)c3c2)CCN(C(C)=O)C1 [Compound 75, 1-((R)-3-(4-(((R)-1-(3-(difluoromethyl)-2-fluorophenyl)ethyl)amino)quinolin-6-yl)-3-methoxypyrrolidin-1-yl)ethan-1-one]",> 500 nM,100 to 500 nM,≤ 10 nM
"CO[C@]1(c2ccc3nccc(N[C@H](C)c4cccc(C(F)F)c4F)c3c2)CCN(C(C)=O)C1 [Compound 76, 1-((S)-3-(4-(((R)-1-(3-(difluoromethyl)-2-fluorophenyl)ethyl)amino)quinolin-6-yl)-3-methoxypyrrolidin-1-yl)ethan-1-one]",≤ 150 nM,≤ 100 nM,≤ 10 nM
"COC1(c2ccc3nccc(N[C@H](C)c4cccc(C(F)(F)F)c4C)c3c2)CCN(C(=O)CC#N)CC1 [Compound 77, (R)-3-(4-methoxy-4-(4-((1-(2-methyl-3-(trifluoromethyl)phenyl)ethyl)amino)quinolin-6-yl)piperidin-1-yl)-3-oxopropanenitrile]",150 to 500 nM,> 500 nM,10 to 100 nM
"COC1(c2ccc3nccc(N[C@H](C)c4cccc(C(F)(F)F)c4C)c3c2)CCN(C(=O)CF)CC1 [Compound 78, (R)-2-fluoro-1-(4-methoxy-4-(4-((1-(2-methyl-3-(trifluoromethyl)phenyl)ethyl)amino)quinolin-6-yl)piperidin-1-yl)ethan-1-one]",150 to 500 nM,≤ 100 nM,≤ 10 nM
"COC1(c2ccc3nccc(N[C@H](C)c4cccc(C(F)(F)F)c4C)c3c2)CCN(C(C)=O)CC1 [Compound 79, (R)-1-(4-methoxy-4-(4-((1-(2-methyl-3-(trifluoromethyl)phenyl)ethyl)amino)quinolin-6-yl)piperidin-1-yl)ethan-1-one]",150 to 500 nM,100 to 500 nM,10 to 100 nM
"COC1(c2ccc3nccc(N[C@H](C)c4cccc(C(F)(F)F)c4C)c3c2)CCN(C(=O)C(C)C)CC1 [Compound 80, (R)-1-(4-methoxy-4-(4-((1-(2-methyl-3-(trifluoromethyl)phenyl)ethyl)amino)quinolin-6-yl)piperidin-1-yl)-2-methylpropan-1-one]",> 500 nM,100 to 500 nM,10 to 100 nM
"CC(C)C(=O)N1CCC(F)(c2ccc3nccc(N[C@H](C)c4cccc(C(F)F)c4F)c3c2)CC1 [Compound 81, (R)-1-(4-(4-((1-(3-(difluoromethyl)-2-fluorophenyl)ethyl)amino)quinolin-6-yl)-4-fluoropiperidin-1-yl)-2-methylpropan-1-one]",≤ 150 nM,≤ 100 nM,≤ 10 nM
"Cc1c([C@@H](C)Nc2ccnc3ccc(C4(F)CCN(C(=O)C(C)C)CC4)cc23)cccc1C(F)(F)F [Compound 82, (R)-1-(4-fluoro-4-(4-((1-(2-methyl-3-(trifluoromethyl)phenyl)ethyl)amino)quinolin-6-yl)piperidin-1-yl)-2-methylpropan-1-one]",> 500 nM,100 to 500 nM,> 100 nM
